Data as given in patent US6613756B2 (Wisconsin Alumni Research Foundation, priority 2000, dated 2003).
Where a name gives a salt, the structure may show the parent alone.

Tests used:
collagenase = conditions: cited from earlier work
naive DA rats = assay: Minocycline treatment of naive, non-immunized animals; format: in vivo, rat
From the text: In the high-dose MOG immunization paradigm rats were separated into two groups: EAE^pbs-phosphate-buffered saline (PBS)-treated rats (n=5) from day 1 post-immunization and EAE^tr-minocycline-treated rats (n=6) from day 1 post-immunization.
(§1) Matched unimmunized, naive groups were also included: N^pbs-PBS-treated animals (n=10), N^tr1-minocycline-treated from experimental day 10 (n=10), N^tr2-minocycline-treated from experimental day 13 (n=5), N^tr3 minocycline-treated from experimental day 13, with twice daily injections during the first two days followed by single injection throughout the remaining treatment period (n=5).

[1] = test system: DA rats with MOG-induced EAE; assay: High-dose MOG (100 μg rMOG/IFA) immunization paradigm of EAE; format: in vivo, rat
Protocol: Statistical analysis of clinical scores was performed by averaging them over all times of the treatment and subtracting the first 11 days after immunization when clinical score in all groups was 0. Statistical significance was established using a repeated measures analysis where clinical score between treatments was compared from day 12 to 42 building in an auto-correlation of the error term. ANOVA and Student's t-test were used to establish the difference between experimental groups in all other examined parameters. […]

[2] = test system: DA rats with MOG-induced EAE; assay: Low-dose MOG (10 μg rMOG/CFA) immunization paradigm of relapsing remitting EAE; format: in vivo, rat; conditions: for % Of Dorsal Column Demyelinated / % Of Mortality / Mean Cumulative Score / % Of Incidence: 10 μg rMOG/CFA
Protocol: Experiments were performed on 6-8 week old female DA rats obtained from Harlan-Sprague Dawley, Indianapolis, Ind. or Harlan-Winkelmann, Germany. During the observation period, rats were housed in a light- and temperature-controlled environment and were permitted free access to food and water. The recombinant extracellular immunogobulin domain of MOG was expressed in E. coli and purified as described previously (Raine, C. S., et al., Ann. Neurol. 46:144-160, 1999).
Rats were immunized sub-cutaneously (s.c.) at the base of the tail with either 10 μg MOG in complete Freund's adjuvant (CFA) or 100 μg MOG emulsified in incomplete Freund's adjuvant (IFA) (Difco, Detroit, Mich.) in a total volume of 100 μl. Animals were weighed and examined daily for clinical signs of EAE that was scored on the following scale: 0.5, partial loss of tail tone; 1, complete tail atony; 2, hind limb weakness; 3, hind limb paralysis; 4, moribund; 5, dead. […]
as §1
Animals were deeply anesthetized with pentobarbital and perfused transcardially with Ringer's followed by 4% paraformaldehyde. The brain and spinal cord were removed and prepared for paraffin and epon embedding or cryo-protected in 30% sucrose. Paraffin sections were used to assess the degree of inflammation (hematoxylin and eosin) and one-micron semithin sections were used to estimate the demyelination in the spinal cord (toluidine blue). Areas with inflammatory infiltrates or demyelinating lesions in the dorsal funiculus of spinal cord were scored using a CCD72 camera to collect digital images that were analyzed with the Microcomputer Imaging Device (MCID) software from Imaging Research Inc. (St. Catherines, Ontario). Measurements for cell infiltrates and demyelination were expressed as percent of the total white matter area of the dorsal funiculus. To determine the profile of inflammatory infiltrates within lesions 10 μm cryostat sections of thoracic-lumbar spinal cord were immunolabelled for MHC II (Harlan Sera-Lab), CR3, CD45 (Serotec), GFAP (Dako), CD3 (PharMingen) and MMP-2 (Oncogne Research Products) protein expression. Primary antibodies were detected using a biotinylated secondary antibodies and the avidin: biotin enzyme complex technique (Vector Laboratories). Areas with immunolabelling-defined inflammatory infiltrates were scored using a semi-quantitative scale: 0-no inflammatory infiltrates or lesions, 1-25%, 2-50%, 3-75%, and 4-100% of the dorsal funiculus.
Statistical analysis of clinical scores was performed by averaging them over all times of the treatment and subtracting the first 11 days after immunization when clinical score in all groups was 0. Statistical significance was established using a repeated measures analysis where clinical score between treatments was compared from day 12 to 42 building in an auto-correlation of the error term. ANOVA and Student's t-test were used to establish the difference between experimental groups in all other examined parameters. Statistically significant differences were presented as: * for P<0.05, ** for P<0.01, and *** for P<0.001.

[3] = test system: MOG-specific T-cell response; assay: MOG-specific T-cell response of draining lymph node cells from treated rats; format: cell-based, rat; conditions: high-dose MOG; minocycline day 1 to 10; 10 d.p.i.
Protocol: Draining lymph nodes and spleens were removed 10 days post-immunization (d.p.i.) and proliferation assays performed in flat-bottomed 96-well tissue culture plates in a total volume of 200 μl using either 5×10^5 lymph node or spleen cells (Raine, C. S., et al., supra, 1999). Antigen specific proliferation was assessed by the incorporation of ^3H-thymidine (10 μCi/well) during the final 18 hours of a 72 hour culture period using a Packard Matrix 96 Direct Beta counter.

[4] = minocycline from day 10 (EAEtr1)
[5] = minocycline from day of onset (EAEtr2)
[6] = minocycline from day of onset, double-dose (EAEtr3)

| Structure (SMILES) | anti-collagenase activity (collagenase) | adverse effects (naive DA rats) | % Of Incidence ([1]; minocycline 45 mg/kg i.p. daily from day 1, terminated day 20) | % Of Dorsal Column Demyelinated ([1]; minocycline from day 1) | Mean Cumulative Score ([1]; minocycline from day 1, sum of daily scores of all animals / number of animals) | % Of Mortality ([1]; minocycline from day 1, terminated day 20) | % Of Dorsal Column Demyelinated [2, 4] | % Of Mortality [2, 4] | Mean Cumulative Score [2, 4] | % Of Incidence ([2]; minocycline from day 10 (EAEtr1), 42 days) | % Of Dorsal Column Demyelinated [2, 5] | % Of Incidence [2, 5] | % Of Mortality [2, 5] | Mean Cumulative Score [2, 5] | % Of Dorsal Column Demyelinated [2, 6] | % Of Mortality [2, 6] | Mean Cumulative Score [2, 6] | % Of Incidence ([2]; minocycline from day of onset, double-dose first two days (EAEtr3)) | maximal clinical disease grade reached ([2]; twice daily for first two days from onset, then once daily (EAEtr3)) | antigen specific proliferative response of draining lymph node cells [3] |
| --- | --- | --- | --- | --- | --- | --- | --- | --- | --- | --- | --- | --- | --- | --- | --- | --- | --- | --- | --- | --- |
| CC1(O)c2cccc(O)c2C(=O)C2=C(O)C3(O)C(=O)C(C(N)=O)=C(O)CC3CC21 (stereo not drawn) [CMT-1, 4-dedimethylamino tetracycline] | persistent anti-collagenase activity | – | – | – | – | – | – | – | – | – | – | – | – | – | – | – | – | – | – | – |
| CN(C)c1ccc(O)c2c1C[C@H]1C[C@H]3[C@H](N(C)C)C(O)=C(C(N)=O)C(=O)[C@@]3(O)C(O)=C1C2=O [Minocycline, Minocycline hydrochloride] | – | not found to induce any adverse effects | 80% | 6.25% | 5.5 | 0% | 5.94% | 0% | 7.43 | 40% | 0.12% | 100% | 0% | 26.25 | 0.04% | 0% | 10.12 | 100% | ≤ 1 | no significant effect |
| NC(=O)C1=C(O)C[C@@H]2C[C@@H]3Cc4cccc(O)c4C(=O)C3=C(O)[C@]2(O)C1=O [CMT-3, 6-demethyl 6-deoxy 4-dedimethylamino tetracycline] | persistent anti-collagenase activity | – | – | – | – | – | – | – | – | – | – | – | – | – | – | – | – | – | – | – |
